# Where “and” joins values, the source holds several entries; their conditions need not be identical. Identical values can stand only once.
# Columns and labels:
# [1] = system: ApoE/LDLR−/− mice; assay: Nitrite and nitrate concentration in plasma, HPLC-based ENO-20 (Example 2); type: in vivo; conditions: two months; for increase in NO2− concentration in plasma: vs untreated
# Experimental: Nitrite (NO2^−) and nitrate (NO3^−) concentration in plasma—HPLC-based ENO-20
# Blood samples were collected from heart into test tubes containing additional anticoagulant and centrifuged at 1000 g for 10 min at 4° C. The samples were used for HPLC measurement of nitrate (NO3^−) and nitrite (NO2^−) concentrations in plasma by an ENO-20 NOx Analyzer.
# [2] = mouse, in vivo, 5 mg/kg/day
# [3] = system: ApoE/LDLR−/− mice; assay: MRI-based assessment of NO-dependent vasodilatation in BCA and LCA after acetylcholine (Example 2); type: in vivo; conditions: two months, 25 min after Ach
# Experimental: The effects of low-doses (0.03 mg/kg b.w./day) as well as high-doses (10 mg/kg b.w./day) of vitamin K2 (MK-7), on endothelial function in mice with pre-established atherosclerosis was assessed. The mice were treated with K2 (MK-7) for two months and endothelial function was analyzed in vivo based on functional study (MRI based assessment of NO-dependent vasodilation) as well as by biochemical analysis (plasma nitrate and nitrite concentration). In addition, a comprehensive qualitative and quantitative histological analysis of the effects of K2 (MK-7) on vascular wall structure and atherosclerosis plaque composition was performed.
# Endpoint assays: Magnetic resonance imaging (MRI)-based assessment of nitric oxide (NO)-dependent vasodilatation in brachiocephalic (BCA) and left common carotid artery (LCA) after acetylcholine (Ach) administration—by MRI 9.4T scanner, total time of measurements: 114 h (1.5 h per animal), acetylcholine (Ach, 16.6 mg/kg b.w.)
# Studies were performed on 4-month old female ApoE/LDLR−/− mice, the model initially described by Ishibashi S, Herz J, Maeda N, Goldstein J, Brown M. The two-receptor model of lipoprotein clearance: tests of the hypothesis in “knockout” mice lacking the low density lipoprotein receptor, apolipoprotein E, or both proteins. Proc Natl Acad Sci USA 1994; 10:4431-5., and extensively characterized in previous studies, [see Kostogrys RB, Franczyk-Zarow M, Gasior-Glogowska M, Kus E, Jasztal A, Wrobel T P, et al. Anti-atherosclerotic effects of pravastatin in brachiocephalic artery in comparison with en face aorta and aortic roots in ApoE/LDLR−/− mice. Pharmacol Reports 2017; 69:112-8. doi:10.1016/j.pharep.2016.09.014; Tyrankiewicz U, Skorka T, Orzylowska A, Jablonska M, Jasinski K, Jasztal A, et al. Comprehensive MRI for the detection of subtle alterations in diastolic cardiac function in apoE/LDLR −/− mice with advanced atherosclerosis. […] End-diastolic volumes of BCA and LCA were analyzed using ImageJ software (1.46r NIH Bethesda, Md., USA) and scripts written in Matlab (MathWorks, Natick, Mass., USA) (FIG. 1A).
# [4] = system: kidney transplantation patients; assay: Clinical study: non-invasive pulse wave velocity measurement of arterial stiffness; type: in vivo, human; conditions: 360 ug/day, after 8 weeks of treatment, kidney transplant patients
# Experimental: Clinical Study to study the efficacy and safety of Vitamin K2 supplementation on arterial stiffness, the rigidity of arterial walls, in kidney transplantation patients.
# A clinical study was carried out. Arterial wall property measurements were taken at t=0 and t=8 weeks and show a dramatic improvement in arterial wall flexibility. This is good support for concluding that the ingestion of vitamin K, even over this short period, is an effective way of improving endothelial function, reducing arterial stiffness and reducing calcification. […] It is surprising and unexpected because calcification is a slow progressive process and it was thought that reversing this process would also be slow and progressive.
# Participants were enrolled in a clinical trial in which the effects of vitamin K2 were determined for patients who had recently undergone a kidney transplant. At the beginning of the study, patients were subjected to a non-invasive pulse wave velocity measurement to measure arterial stiffness/flexibility, as well as blood analysis. The study participants were then instructed to receive a specific daily dose of MenaQ7 vitamin K2 menaquinone-7 (360 ug/day) for a total of 8 weeks. At the end of 8 weeks, patients were again examined with a follow-up examination, a non-invasive pulse wave velocity measurement and blood analysis and drug treatment was discontinued.
# [5] = system: ApoE/LDLR−/− mice; assay: Nitrite and nitrate concentration in plasma, older mice (Example 3); type: in vivo; conditions: 0.03 and 10 mg/kg b.w./day, eight weeks
compound,measurement,setting,value
"CC(C)=CCC/C(C)=C/CC/C(C)=C/CC/C(C)=C/CC/C(C)=C/CC/C(C)=C/CC/C(C)=C/CC1=C(C)C(=O)c2ccccc2C1=O [MK-7, menaquinone-7]",concentration of NO3− in plasma,[1]; 0.03 and 10 mg/kg b.w./day,did not change significantly
same,increase in NO2− concentration in plasma,[1]; high dose 10 mg/kg b.w./day,~42%
same,increase in NO2− concentration in plasma,[1]; low dose 0.03 mg/kg b.w./day,about 58%
same,"concentration of MK4 2,3-epoxide in plasma",[2],maintained at similar level in all groups
same,plasma concentration of MK-4,[2],dose-dependent increase
same,"vitamin K1 and K1 2,3-epoxide plasma concentration",[2],tent to decrease with increasing dose
same,vessel volume change of BCA after Ach injection,[3]; high dose 10 mg/kg b.w./day,3.12%
same,vessel volume change of LCA after Ach injection,[3]; high dose 10 mg/kg b.w./day,4.45%
same,vessel volume change of LCA after Ach injection,"[3]; low dose 0.03 mg/kg b.w./day, listed as vitamin MK-7, 0.03 mg/kg/day",~−3% and −3.92%
same,mean reduction in measured pulse-wave velocity,[4],30%
same,concentration of NO3− in plasma,[5],did not change significantly

# From patent publication US20220160651A1, “RAPIDLY IMPROVING ENDOTHELIAL FUNCTION, REDUCING ARTERIAL STIFFNESS AND REVERSING CALCIFICATION OF BLOOD VESSELS BY ADMINISTERING VITAMIN K” (KAYDENCE PHARMA AS, priority 2019, published 2022)
